Series [1] relates to Klebsiella pneumoniae (Kp). Briefly: MIC in nutrient agar, Klebsiella pneumoniae. Format: cell-based, Klebsiella pneumoniae ATCC 8308. The protocol:
(§1) The minimum inhibitory concentration (MIC) for the compounds listed in Table I is determined for 9 bacteria, using nutrient agar, and 7 yeast and fungi, using malt yeast agar. A one percent solution of the test compound is prepared in a mixture of acetone and water. Nutrient agar is prepared at pH 6.8, representing a neutral medium, and at pH 8.2, representing an alkaline medium. The nutrient agars are prepared by adding 23 g of nutrient agar to one-liter of deionized water. In addition, the alkaline medium is prepared by adjusting a 0.04M solution of N-[tris-(hydroxymethyl)methyl]-glycine buffered deionized water with concentrated sodium hydroxide to a pH of […]. Malt yeast agar is prepared by adding 3 g yeast extract and 45 g malt agar per liter of deionized water. The specific agar is dispensed in 30 ml aliquots into 25×200 mm test tubes, capped and autoclaved for 15 minutes at 115° C. The test tubes containing the agar are cooled in a water bath until the temperature of the agar is 48° C. Then, an appropriate amount of the one percent solution of the test compound is added (except in the controls where no compound is added) to the respective test tubes so that the final concentrations are 500, 250, 100, 50, 25, 10, 5, 2.5, 1.0 and zero parts per million of the test compound in the agar, thus having a known concentration of test compound dispersed therein. The contents of the test tubes are then transferred to respective petri plates. After drying for 24 hours, the petri plates containing nutrient agar are inoculated with bacteria and those containing malt yeast agar are inoculated with yeast and fungi.
(§2) The inoculation with bacteria is accomplished by using the following procedure. Twenty-four hour-cultures of each of the bacteria are prepared by incubating the respective bacteria in tubes containing nutrient broth for 24 hours at 30° C. in a shaker. Dilutions of each of the 24 hour-cultures are made so that nine separate suspensions (one for each of the nine test bacteria) are made, each containing 10^8 colony forming units (CFU) per ml of suspension of a particular bacteria. Aliquots of 0.3 ml of each of the bacterial suspensions are used to fill the individual wells of Steer's Replicator. For each microbial suspension, 0.3 ml was used to fill three wells (i.e., three wells of 0.3 ml each) so that for the nine different bacteria, 27 wells are filled. The Steer's Replicator is then used to inoculate both the neutral and alkaline pH nutrient agar petri plates.
(§3) The inoculated petri plates are incubated at 30° C. for 48 hours and then read to determine if the test compound which is incorporated into the agar prevented growth of the respective bacteria.
(§4) Table II lists the bacteria, yeast and fungi used in the MIC test described above along with their respective American Type Culture Collection (ATCC) identification numbers.
(§5) The following MIC and MEC antimicrobial tests, whose results are shown in Tables XIII-XVII, are performed using the same methods as described hereinabove.

The test system of series [2] is mixture of the bacterial organisms listed in Table II. The experiment in a line: MEC in tape joint formulation after 3 months storage. As to conditions: 2190 h, pH between 5 and 7, after 3 months storage at room temperature. In kind it is cell-based, bacteria listed in Table II. Here is the method: (§6) The formulations are separated into 50 g aliquots and placed in sterile bottles. An appropriate amount of a fresh one percent stock solution of the test compound in acetone-water is added to achieve the desired final concentrations. A small portion of each of the test formulations is streaked onto Tryptic Soy Agar (TSA) petri plates using sterile cotton swabs to ensure that the formulations are sterile. If the formulation is sterile, then it is inoculated with 0.1 ml of a mixture of equal aliquots of the 24 hour cultures of each of the bacterial organisms listed in Table II. The test formulations are then incubated at 30° C. After 24 hours, each sample is streaked onto a TSA petri plate using a sterile swab. All plates are then incubated at 30° C. for 48 hours and then rated for microbial growth using the rating system listed in Table VIII. Samples with a rating of 3 or less are reinoculated as described in the procedure for the first inoculation. Samples with a rating of 4 or greater are not reinoculated but after another 24 hours are restreaked on TSA agar.
(§7) The normal interpretation of the results is that a concentration of the antimicrobial being tested is considered to be effective if no ratings greater than a 3 are observed throughout the 10 challenges. […]

In series [3] the test system is Pseudomonas aeruginosa (Pa). Briefly: MIC in nutrient agar, Pseudomonas aeruginosa. Format: cell-based, Pseudomonas aeruginosa ATCC 10145. The protocol:
as §1, §2, §3, §4, §5

The nature of series [4]: Stability of 3-thio-2-propynenitriles at pH 7 or above / in basic solution. In kind it is physicochemical. As to conditions: basic solution / pH of 7 or above. An excerpt:
It has also been discovered that the compounds of the present invention may degrade at a pH of 7 or above over an extended time period to compounds which are less antimicrobially active than the original compounds of the present invention.

Series [5] deals with mixture of the bacterial organisms listed in Table II. Briefly: MEC in paint formulation after 1 month storage. In kind it is cell-based, bacteria listed in Table II. As to conditions: 730 h, pH between 7 and 9, after 1 month storage at room temperature. The protocol: as §6, §7
[6] abbreviates: pH 6.8, read-out: Minimum Inhibitory Concentration, Kp.
The mark [7] stands for this setting: pH 8.2, read-out: Minimum Inhibitory Concentration, Kp.
[8] abbreviates: pH 8.2, read-out: Minimum Inhibitory Concentration, Pa.

Converted amounts (≈) assume the structure as drawn. Read-outs that look alike come from different tables or passages of the source. Bounds are passed on as bounds.

Turning to `N#CC#CSC1CCCC1` [C, 3-cyclopentylthio-2-propynenitrile], the MIC in series [1] (setting [6]) is less than 10 µg/mL; in series [1] (setting [7]), 25 µg/mL (≈ 165 µM).
On to `CSC=C(Cl)C#N` [Compound G, 2-chloro-3-(methylthio)-2-propenenitrile], for which, in series [2], the minimal effective concentration (in general, the smallest amount tested that counted as effective) was more than 50 µg/mL. For the same molecule, the MIC in series [1] (setting [6]) stood at 50 µg/mL (≈ 374 µM); in series [1] (setting [7]), 10 µg/mL (≈ 74.8 µM); in series [3] (pH 6.8, read-out: Minimum Inhibitory Concentration, Pa), 50 µg/mL (≈ 374 µM); in series [3] (setting [8]), 5 µg/mL (≈ 37.4 µM).
Take `N#CC#CSc1ccc(Cl)cc1` [D, 3-(4-chlorophenylthio)-2-propynenitrile]: the MIC in series [1] (setting [6]) was less than 10 µg/mL; in series [1] (setting [7]) it was 50 µg/mL (≈ 258 µM).
Take `CSC#CC#N` [Compound A, 3-methylthio-2-propynenitrile]: in series [4], the stability result is on record as “observed to decompose in a basic solution to several compounds”. For the same molecule, the minimal effective concentration in series [5] and in series [2] was more than 50 µg/mL each time. The MIC came out at 2.5 µg/mL (≈ 25.7 µM) in series [1] (setting [6]), 10 µg/mL (≈ 103 µM) in series [1] (setting [7]) and 2.5 µg/mL (≈ 25.7 µM) in series [3] (setting [8]).
Consider `CCSC#CC#N` [B, 3-ethylthio-2-propynenitrile], for which the MIC in series [1] (setting [6]) and in series [1] (setting [7]) was 5 µg/mL (≈ 45 µM) each time.

(Values after patent US5198445A, “Composition and use of substituted 3-thio-2-propynenitriles as industrial antimicrobials” (The Dow Chemical Company, priority 1992, dated 1993).)
